Data published in PubChem BioAssay (NCI).
Where “and” joins values, the source holds several entries; their conditions need not be identical. Equal entries are not always repeated.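 Cells were grown in 96-well plates and exposed to each compound for 48 hours at five concentrations; endpoints were interpolated linearly between bracketing concentrations, or set to the highest concentration if not reached. Abbreviation: GI50, concentration required for 50% inhibition of growth. At the TGI there is no net growth.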

Assays:
Assay in all cases: growth of human tumour cells (NCI), 48 h
CAKI-1 renal = test system: CAKI-1 renal
DU-145 prostate = test system: DU-145 prostate
NCI-H460 lung = test system: NCI-H460 lung
NCI/ADR-RES ovarian = test system: NCI/ADR-RES ovarian
SF-268 CNS = test system: SF-268 CNS
SNB-19 CNS = test system: SNB-19 CNS
SR leukemia = test system: SR leukemia
T-47D breast = test system: T-47D breast
UACC-62 melanoma = test system: UACC-62 melanoma
A549 NSCLC = test system: A549 NSCLC

| SMILES | TGI (CAKI-1 renal) | TGI (DU-145 prostate) | TGI (NCI-H460 lung) | TGI (NCI/ADR-RES ovarian) | TGI (SF-268 CNS) | TGI (SNB-19 CNS) | TGI (SR leukemia) | GI50 (T-47D breast) | GI50 (UACC-62 melanoma) | TGI (UACC-62 melanoma) | TGI (A549 NSCLC) | GI50 (DU-145 prostate) | TGI (T-47D breast) | GI50 (A549 NSCLC) | GI50 (CAKI-1 renal) | GI50 (NCI/ADR-RES ovarian) | GI50 (SNB-19 CNS) | GI50 (SR leukemia) | GI50 (NCI-H460 lung) | GI50 (SF-268 CNS) |
| --- | --- | --- | --- | --- | --- | --- | --- | --- | --- | --- | --- | --- | --- | --- | --- | --- | --- | --- | --- | --- |
| CC1OC(O[C@@H]2C=C3CC[C@@H]4[C@H](CC[C@]5(C)[C@@H](c6ccc(=O)oc6)CC[C@]45O)[C@@]3(C)CC2)C(O)C(O)C1O (some centres undefined) | 0.000992 µM | 0.0153 µM | 0.003 µM and 0.00049 µM | 0.003 µM and 0.000304 µM | 0.00353 µM | 0.0198 µM and 0.0319 µM | 0.00115 µM | 0.000846 µM | 0.00216 µM | 0.003 µM | – | – | – | – | – | – | – | – | – | – |
| COc1cc([C@@H]2c3cc4c(cc3[C@@H](OC3OC5COC(C)OC5C(O)C3O)[C@H]3COC(=O)[C@H]23)OCO4)cc(OC)c1O (some centres undefined) | 31.4 µM and 77.1 µM and 49.2 µM | – | 57 µM and 9.96 µM and 25.3 µM | 178 µM and 500 µM and 650 µM | – | 118 µM and 500 µM and 171 µM | 84.8 µM and 26.1 µM and 13.3 µM | 0.516 µM | – | – | 61.4 µM and 108 µM | 2.3 µM and 1.67 µM | 5.18 µM | – | – | – | – | – | – | – |
| Cc1ccc2nc(CN(CCN(Cc3nc4ccc(C)cc4[nH]3)Cc3nc4ccc(C)cc4[nH]3)Cc3nc4ccc(C)cc4[nH]3)[nH]c2c1 | 2.51 µM | 3.18 µM | – | 3.36 µM | – | 3.07 µM | 3.22 µM | 1.71 µM | 1.72 µM | 3.1 µM | 3.54 µM | 1.79 µM | 3.12 µM | 1.86 µM | 1.26 µM | 1.89 µM | 1.7 µM | 1.49 µM | – | – |
| CN(C(=O)C12C3C4C1C1C2C3C41C#N)C(C)(C)C (centres undefined) | > 100 µM | – | > 100 µM | – | > 100 µM | > 100 µM | – | – | – | > 100 µM | > 100 µM | – | – | – | – | – | – | – | – | – |
| CN(C)NC(=O)NC12CC3CC(CC(C3)C1)C2 | > 100 µM | – | > 100 µM | – | > 100 µM | > 100 µM | > 100 µM | – | – | > 100 µM | > 100 µM | – | – | – | – | – | – | – | – | – |
| CSCSCC(CO)NC(=O)/C=C/c1c(C)[nH]c(=O)[nH]c1=O (centres undefined) | > 100 µM | – | > 100 µM | – | > 100 µM | > 100 µM | > 100 µM | – | – | > 100 µM | > 100 µM | – | – | – | – | – | – | – | – | – |
| CCOC(=O)C(=O)CC(=O)C(Br)C(Br)c1ccc(Cl)cc1 (centres undefined) | > 100 µM | – | > 100 µM | – | > 100 µM | 64.6 µM | – | – | – | > 100 µM | > 100 µM | – | – | – | – | – | – | – | – | – |
| Cc1nc2ccccc2c(=O)n1/N=C(\N=Nc1cc(Cl)ccc1Cl)c1ccc(N(C)C)cc1 | 79.8 µM | – | > 100 µM | – | > 100 µM | > 100 µM | – | – | – | > 100 µM | > 100 µM | – | – | – | – | – | – | – | – | – |
| C=C(CN1CCN(c2cc(C(F)(F)F)cc(C(F)(F)F)c2)CC1)c1ccc(C(=O)Nc2ccccc2N)cc1 | 42.3 µM | > 100 µM | > 100 µM | > 100 µM | > 100 µM | > 100 µM | – | 8.97 µM | 4.21 µM | > 100 µM | > 100 µM | 5.4 µM | > 100 µM | 19 µM | 2.81 µM | 5.82 µM | 14 µM | – | 4.09 µM | 8.12 µM |
| CCNC(=O)O/N=C1\CCC2[C@@H]3CC=C4C[C@@H](OC(=O)NCC)CC[C@]4(C)C3CC[C@]12C (some centres undefined) | – | – | 10 µM | – | 13 µM | 14.1 µM | – | – | – | 10.2 µM | 13.5 µM | – | – | – | – | – | – | – | – | – |
| C(=C\c1ccc2ccccc2c1Nc1ccccc1)/c1ccccc1 | > 83.8 µM | – | > 59.2 µM | – | > 100 µM | > 90.5 µM | 33.6 µM | – | – | > 100 µM | > 100 µM | – | – | – | – | – | – | – | – | – |
| CCn1c(=O)nc2n(-c3ccc(SC)cc3)c3ccccc3nc-2c1=O | > 100 µM | – | > 100 µM | – | > 100 µM | > 100 µM | – | – | – | > 100 µM | > 100 µM | – | – | – | – | – | – | – | – | – |
| O=C(CC1(O)C(=O)Nc2ccccc21)c1cccc(O)c1 (centres undefined) | > 100 µM | – | > 100 µM | – | > 100 µM | > 100 µM | – | – | – | > 100 µM | > 100 µM | – | – | – | – | – | – | – | – | – |
| CC(=O)O[C@H]1CSC[C@@H](OC(C)=O)C1[N+](=O)[O-] (some centres undefined) | > 100 µM | – | > 100 µM | – | > 100 µM | > 100 µM | – | – | – | > 100 µM | > 100 µM | – | – | – | – | – | – | – | – | – |
| COc1cc(O)c(C(=O)C2Cc3ccccc32)c(OC)c1 (centres undefined) | 72.4 µM | – | > 100 µM | – | > 100 µM | > 100 µM | – | – | – | > 100 µM | > 100 µM | – | – | – | – | – | – | – | – | – |
| CCOC(=O)C(Oc1ccc(OC)c2c1C(=O)CCC2)c1ccccc1 (centres undefined) | > 100 µM | – | > 100 µM | – | > 100 µM | > 100 µM | – | – | – | > 100 µM | > 100 µM | – | – | – | – | – | – | – | – | – |
| O=C(O)CN(CCN(CC(=O)O)CC(=O)O)CC(=O)O.[Cu+2].[Na+] | > 100 µM | > 100 µM | > 100 µM | > 100 µM | > 100 µM | > 100 µM | – | > 100 µM | > 100 µM | > 100 µM | > 100 µM | > 100 µM | > 100 µM | > 100 µM | > 100 µM | > 100 µM | > 100 µM | – | > 100 µM | > 100 µM |
| O=C(NCCN1CCOCC1)c1cc2c(Oc3ccc(NC(=O)C4(C(=O)Nc5ccc(F)cc5)CC4)cc3)ccnc2[nH]1 | > 100 µM | > 100 µM | > 100 µM | > 100 µM | > 100 µM | > 100 µM | – | 4.43 µM | 4.26 µM | 22.7 µM | 48.6 µM | 10.6 µM | 46 µM | 4.9 µM | 13.7 µM | 22.9 µM | 14.2 µM | – | 4.36 µM | 6.4 µM |
| O=C(O)CCCCCNCc1cc2cc3c(cc2c2cc(OCc4ccccc4)ccc12)OCO3 | 12 µM | 5.47 µM | 3.33 µM | 11.1 µM | – | 20.7 µM | 5.3 µM | 2.06 µM | 1.8 µM | 3.44 µM | 3.17 µM | 2.37 µM | 5.04 µM | 1.55 µM | 3.17 µM | 2.88 µM | 4.05 µM | 1.7 µM | 1.7 µM | – |
| C#Cc1c(C)c(/C=C/C(C)=C\C(=O)OC)n(C)c1C | > 100 µM | – | > 100 µM | – | > 100 µM | > 100 µM | – | – | – | > 100 µM | > 100 µM | – | – | – | – | – | – | – | – | – |
| CCN(CC)c1ccc(N=Nc2ccc(-c3nc4cccnc4s3)cc2)cc1 | > 100 µM | – | > 100 µM | – | > 100 µM | > 100 µM | > 100 µM | – | – | > 100 µM | > 100 µM | – | – | – | – | – | – | – | – | – |
